Data reported in US7638554B2, “Flavanoids as chemotherapeutic, chemopreventive, and antiangiogenic agents” (SRI International, priority 2002, dated 2009).
Like-named read-outs stand apart in the source and are kept apart here.

Experiments:
[1] = system: prostate cancer cell line LNCaP; experiment: Growth inhibition, sulforhodamine-based protein determination, LNCaP; assay type: cell-based; settings: Homo sapiens
Procedure: (§1) The novel compound SR 13179 was assayed for its ability to inhibit growth in several cancer cell lines. The cell lines studied included breast cancer cell line MCF-7 (ER+); prostate cancer cell lines LNCaP, PC3, and DU145; lung cancer cell line A427; ovarian cancer cell lines IGROV1, OVCAR-3, OVCAR-4, OVCAR-5, OVCAR-8, and SK-OV-3; and colon cancer cell lines COLO 205, HCC-2998, HCT-116, HCT-15, HT29, KM12, AND SW-620.
(§2) The growth assays for the breast cancer cell lines were conducted according to the method of Example 16. For the other cell lines, each assay was conducted with continuous exposure to the test compound at four log concentrations for six days, using a sulforhodamine-based protein determination to measure growth inhibition.
The procedure of Example 20 was used to evaluate the growth inhibitory effect of various compounds of the invention on LNCaP cells.

[2] = system: ovarian cancer cell line OVCAR-4; experiment: Growth inhibition, sulforhodamine-based protein determination, OVCAR-4; assay type: cell-based; settings: Homo sapiens, OVCAR-4, 144 h; continuous exposure six days
Procedure: as §1, §2

[3] = system: colon cancer cell line HCC-2998; experiment: Growth inhibition, sulforhodamine-based protein determination, HCC-2998; assay type: cell-based; settings: Homo sapiens, HCC 2998, 144 h; continuous exposure six days
Procedure: as §1, §2

[4] = system: colon cancer cell line HT29; experiment: Growth inhibition, sulforhodamine-based protein determination, HT29; assay type: cell-based; settings: Homo sapiens, HT-29, 144 h; continuous exposure six days
Procedure: as §1, §2

[5] = system: colon cancer cell line KM12; experiment: Growth inhibition, sulforhodamine-based protein determination, KM12; assay type: cell-based; settings: Homo sapiens, KM12, 144 h; continuous exposure six days
Procedure: as §1, §2

[6] = system: colon cancer cell line SW-620; experiment: Growth inhibition, sulforhodamine-based protein determination, SW-620; assay type: cell-based; settings: Homo sapiens, SW-620, 144 h; continuous exposure six days
Procedure: as §1, §2

[7] = system: MCF-7 human breast carcinoma cells; experiment: Cell cycle analysis in MCF-7 cells; assay type: cell-based; settings: 1 μM, 24 h
MMP-2 (gelatinase) = experiment: Zymography of MMP-2 activity in supernatants of MCF-10-CA1a cultures; assay type: cell-based, human; settings: 5 μM, 48 h, serum-free medium
Procedure: Zymography. Zymography as used herein is illustrated by the following general procedure. MCF10CA1a cells were grown in 100 mm in diameter tissue culture plates until 90% confluent. The cells were washed once with serum-free medium and placed in serum-free medium for 2 h prior to drug treatment. The candidate agent was added to the plate and the plate was incubated in the 5% CO2 incubator at 37° C. for 16 h. The medium was collected, concentrated and subjected to zymography. In brief, 10 μl of the sample was electrophoresed in 8% polyacrylamide gel containing 0.1% gelatin in the presence of SDS. After electrophoresis, gel was washed two times, 20 min each, in 2.5% Triton X-100 and incubated overnight at 37° C. in a solution containing 50 mM Tris-HCl, pH 8, 5 mM CaCl2, 10 mM ZnCl2 and 0.02% NaN3. The gel was then stained for 30 min with 0.5% Coomassie Brilliant Blue R-250 prepared in 30% methanol/10% acetic acid solution and destained with several washes with water.
The effect of SR 13179 on the activity of MMP-2 (gelatinase) was studied. MCF-10-CA1a cells were treated with 1, 3, and 5 μM SR 13179 in serum-free medium for 48 h. Untreated cells, grown under the same conditions, were used as control. After treatment, supernatants of the cultures were concentrated and subjected to zymography.

MMP-9 = experiment: Western blotting of cell-associated MMP-9 protein, MCF-10-CA1a cells; assay type: cell-based, human; settings: 1, 3, or 5 μM, 48 h
Text: (§3) Western Blotting. Proteins were separated by gel electrophoresis using 4-12% pre-cast SDS-polyacrylamide gels (Invitrogen, Carlsbad, Calif.) and then electrophoretically transferred onto Hybond™-P membrane (Amersham Biosciences, Piscataway, N.J.). Blots were probed with specific antibodies (Santa Cruz Biotechnology, Inc). The ECL Plus Western Blotting Detection System of Amersham Biosciences (Piscataway, N.J.) and the procedure recommended by the manufacturer was used for the detection of antigens. Protein bands were quantified by analyzing the images obtained using an Alphaimager™ S-3400 (Alpha Innotech Corp., San Leandro, Calif.).
The effect of SR 13179 on cell-associated MMP-2 and MMP-9 protein levels was studied. MCF-10-CA1a cells were treated with SR 13179 at 1, 3, or 5 μM concentrations for 48 h. Untreated cells were used as control. Proteins were separated by SDS-Polyacrylamide gel electrophoresis and electrophoretically transformed onto Hybond™ P membrane (Amerhsam Biosciences). Blots were probed with specific antibodies (Santa Cruz Biotechnology Inc.).

TIMP-2 = experiment: Western blotting of TIMP-2 protein expression, MCF-10-CA1a cells; assay type: cell-based, human
Text: as §3
The effects of SR 13179 on the protein expression of TIMP-1, TIMP-2, and membrane-type 1 MMP (MT1-MMP) were studied. SR13179 induced the protein expression of TIMP-2 in a dose- and time-dependent manner. MCF-10-CA1a cells were treated with SR 13179 at 1, 3, or 5 μM concentrations for 48 h, or, alternatively, with […] SR 13179 for 8, 24, or 48 h. Cells were lysed and subjected to Western blotting.

MMP-2 = experiment: Extracellular level of MMP-2, MCF-10CA1a cells; assay type: cell-based, human; settings: 5 μM
Procedure: (§4) The effect of SR13179 on the extracellular levels of TIMP-2 as well as MMP-2 was also investigated. Treatment of MCF-10CA1a cells with SR13179 at 5 μM concentration caused 5- to 8-fold increase in the secreted level of TIMP-2 and a 2-fold decrease in the extracellular level of MMP-2. However, extracellular TIMP-2 protein was always associated with MMP-2 protein, even after the samples were boiled for 10 min and separated under the denaturing conditions of gel electrophoresis.

human TIMP-2 mRNA = experiment: Northern blot analysis of TIMP-2 mRNA, MCF10CA1a cells; assay type: cell-based; settings: 0.5, 1, 3, or 5 μM
Procedure: Northern blotting. Ten μg of total RNA was electrophoresed in 1% agarose gel containing 6% formaldehyde, transferred to nylon membrane (Amersham Hybond N) by capillary blotting and fixed to the filter by exposure to UV. The blot was probed with a 600 bp ^32P-labeled cDNA sequence of human TIMP-2. Hybridizations were carried out at 42° C. in 50% formamide, 5×SSC, 5×Denhardt's solution, 0.1% SDS, and 0.3 mg/ml salmon sperm DNA. Filters were exposed to X-ray film (Kodak XAR-2) at −80° C. using an intensifying screen (Coronex Hi-Plus).
as §4

p38 MAPK = molecular target: T1, p38 MAPK (Homo sapiens, UniProt Q16539); experiment: Inhibition of p38 MAPK in MCF-7 cells; assay type: cell-based; settings: MCF-7 human breast cancer cell line
T1 construct: endogenous in cells; host or cells: MCF-7 human breast cancer cells
T1 sequence (Q16539 whole entry): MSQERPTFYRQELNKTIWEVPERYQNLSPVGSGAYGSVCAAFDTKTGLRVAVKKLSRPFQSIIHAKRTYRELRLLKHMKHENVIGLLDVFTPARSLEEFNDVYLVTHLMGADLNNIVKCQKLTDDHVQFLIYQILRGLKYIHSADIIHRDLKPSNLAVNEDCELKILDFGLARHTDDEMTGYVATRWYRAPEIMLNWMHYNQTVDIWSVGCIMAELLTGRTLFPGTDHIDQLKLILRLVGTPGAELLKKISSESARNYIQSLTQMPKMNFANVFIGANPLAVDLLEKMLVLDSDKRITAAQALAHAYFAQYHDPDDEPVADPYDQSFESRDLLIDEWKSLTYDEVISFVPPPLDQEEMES

Work on `COc1cc(C2CC(O)c3ccc4ccccc4c3O2)cc(OC)c1OC` (stereo not shown) [SR 13179, 2-(3,4,5-trimethoxyphenyl)-3,4-dihydro-2H-benzo[h]chromen-4-ol] yielded an IC50 ([1]; 144 h, continuous exposure six days, read-out: IC50, growth inhibition, LNCaP) of 210 nM, an IC50 ([1]; Table 5, read-out: Growth Inhibition (IC50), LNCaP cells) of 210 nM and an IC50 [2] of 423 nM. For the same compound, the IC50 [3] was 278 nM, the IC50 [4] was 430 nM and the IC50 [5] was 168 nM. The IC50 [6] was 281 nM, the “hypodiploid (sub G1) fraction compared with untreated control” value [7] was “nearly three-fold increase” and the “inhibition of MMP-2 activity” value (MMP-2 (gelatinase)) was greater than 50%. For the same compound, the “cell-associated MMP-9 protein levels” value (MMP-9) was “does not affect”, the “Level of TIMP-2 Protein” value (TIMP-2; 1 μM, 48 h) was 6.8 and the “Level of TIMP-2 Protein” value (TIMP-2; 3 μM, 48 h) was 14.6. For the same compound, the “Level of TIMP-2 Protein” value (TIMP-2; 5 μM, 48 h) was 16.2, the “Level of TIMP-2 Protein” value (TIMP-2; 8 h, 5 mM SR 13179) was 7.9 and the “Level of TIMP-2 Protein” value (TIMP-2; 24 h, 5 mM SR 13179) was 14.5. For the same compound, the “Level of TIMP-2 Protein” value (TIMP-2; 48 h, 5 mM SR 13179) was 15.9, the “decrease in the extracellular level of MMP-2” value (MMP-2) was 2 fold and the “TIMP-2 mRNA” value (human TIMP-2 mRNA) was “dose-dependent induction”. The “p38 MAPK” value (p38 MAPK) was “inhibited”.
